Source: publication PMC8973362, “5-(Sulfamoyl)thien-2-yl 1,3-oxazole inhibitors of carbonic anhydrase II with hydrophilic periphery” (Journal of Enzyme Inhibition and Medicinal Chemistry, 2022)
pKi: −log10 of the molar value. Read-outs that look alike come from different tables or passages of the source.

Key:
[1] = target: T1, hCA I (Homo sapiens, UniProt P00915); test: stopped-flow CO2 hydrase assay, hCA I; type: biochemical
T1 construct: made in house

[2] = target: T2, hCA II (Homo sapiens, UniProt P00918); test: stopped-flow CO2 hydrase assay, hCA II; type: biochemical
T2 construct: made in house

[3] = target: T3, hCA IV (Homo sapiens, UniProt P22748); test: stopped-flow CO2 hydrase assay, hCA IV; type: biochemical
T3 construct: made in house

[4] = target: T4, hCA XII (Homo sapiens, UniProt O43570); test: stopped-flow CO2 hydrase assay, hCA XII; type: biochemical
T4 construct: made in house

[5] = test system: intraocular pressure; test: intraocular pressure (IOP) lowering in normotensive rabbits; type: in vivo; conditions: 1% eye drop, normotensive New Zealand White rabbits, n = 6, tested twice; comparable to 1 (dorzolamide, 2% eye drops)

T3 sequence (P22748 19-312): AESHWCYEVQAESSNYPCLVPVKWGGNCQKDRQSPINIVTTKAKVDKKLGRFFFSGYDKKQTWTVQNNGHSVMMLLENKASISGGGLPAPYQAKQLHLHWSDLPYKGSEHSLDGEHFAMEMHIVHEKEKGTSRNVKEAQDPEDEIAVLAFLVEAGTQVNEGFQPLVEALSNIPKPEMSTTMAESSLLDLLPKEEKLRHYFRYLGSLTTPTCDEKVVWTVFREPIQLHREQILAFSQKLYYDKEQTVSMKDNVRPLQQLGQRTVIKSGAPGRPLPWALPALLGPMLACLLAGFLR
T4 sequence (O43570 25-354): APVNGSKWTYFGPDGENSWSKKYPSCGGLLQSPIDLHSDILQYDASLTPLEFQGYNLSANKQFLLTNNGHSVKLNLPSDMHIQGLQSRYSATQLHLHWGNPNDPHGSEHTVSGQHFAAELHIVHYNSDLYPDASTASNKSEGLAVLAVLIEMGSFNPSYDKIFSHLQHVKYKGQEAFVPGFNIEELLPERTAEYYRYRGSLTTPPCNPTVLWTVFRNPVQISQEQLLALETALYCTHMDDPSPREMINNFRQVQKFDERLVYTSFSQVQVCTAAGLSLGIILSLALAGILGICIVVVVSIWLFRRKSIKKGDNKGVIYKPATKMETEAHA
T1 sequence (P00915 whole entry): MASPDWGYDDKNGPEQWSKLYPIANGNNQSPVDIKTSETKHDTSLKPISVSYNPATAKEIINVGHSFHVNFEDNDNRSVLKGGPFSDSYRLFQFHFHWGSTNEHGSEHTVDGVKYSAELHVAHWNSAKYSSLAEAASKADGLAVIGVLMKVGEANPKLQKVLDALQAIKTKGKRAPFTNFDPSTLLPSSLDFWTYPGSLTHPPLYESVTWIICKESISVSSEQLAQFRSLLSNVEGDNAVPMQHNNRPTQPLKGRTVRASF

Row | pKi ([1]; mean from three assays by stopped flow technique, errors ± 5–10%, read-out: Ki hCA I) | pKi ([2]; mean from three assays by stopped flow technique, errors ± 5–10%, read-out: Ki hCA II) | pKi ([3]; mean from three assays by stopped flow technique, errors ± 5–10%, read-out: Ki hCA IV) | pKi ([4]; mean from three assays by stopped flow technique, errors ± 5–10%, read-out: Ki hCA XII) | Compound | pKi [1] | pKi [2] | pKi [3] | pKi [4] | IOP lowering effect [5]
1 | – | – | – | – | NS(=O)(=O)c1ccc(-c2cnc(C(=O)N3CCNCC3)o2)s1 [7a] | 8.40 | 10.16 | 7.67 | 8.41 | clear IOP lowering effect
2 | – | – | – | – | NS(=O)(=O)c1ccc(-c2cnc(C(=O)NC3CCNCC3)o2)s1 [7b] | 7.25 | – | – | 8.05 | –
3 | – | – | – | – | NC1CCN(C(=O)c2ncc(-c3ccc(S(N)(=O)=O)s3)o2)CC1 [7c] | 7.50 | 9.39 | 7.51 | 8.24 | –
4 | – | – | – | – | NCCNC(=O)c1ncc(-c2ccc(S(N)(=O)=O)s2)o1 [7d] | 7.14 | – | – | 8.03 | –
5 | 7.23 | 8.51 | 8.34 | 8.06 | NCCCNC(=O)c1ncc(-c2ccc(S(N)(=O)=O)s2)o1 [7e] | – | – | – | – | –
